Data published in paper PMC9591056, “Inhibitors of ApiAP2 protein DNA binding exhibit multistage activity against Plasmodium parasites” (PLOS Pathogens, 2022).

Experiments:
[1] = target: T1, PbAP2-Sp (Plasmodium berghei, UniProt A0A509ASL1); test: competitive EMSA, inhibition of DNA binding; conditions: 300 uM compound; cognate biotinylated dsDNA probe; 10 mM Tris pH 7.5, 50 mM KCl, 6 mM MgCl2
T1 construct: gene PBANKA_1329800
T1 sequence (A0A509ASL1 175-230 limits assumed): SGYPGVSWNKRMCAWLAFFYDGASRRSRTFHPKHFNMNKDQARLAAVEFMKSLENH

[2] = target: T2, AP2-I D3 (Plasmodium falciparum, UniProt Q8IJW6); test: competitive EMSA, inhibition of DNA binding; conditions: 300 uM compound; cognate biotinylated dsDNA probe; 10 mM Tris pH 7.5, 50 mM KCl, 6 mM MgCl2
T2 construct: gene PF3D7_1007700
T2 sequence (Q8IJW6 entry or part of it): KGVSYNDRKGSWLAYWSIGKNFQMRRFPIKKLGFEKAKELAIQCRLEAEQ

[3] = target: T3, AP2-HS D1 (Plasmodium falciparum, UniProt C0H5G5); test: competitive EMSA, inhibition of DNA binding; conditions: 300 uM compound; cognate biotinylated dsDNA probe; 10 mM Tris pH 7.5, 50 mM KCl, 6 mM MgCl2
T3 construct: gene PF3D7_1342900
T3 sequence (C0H5G5 2363-2413 limits assumed): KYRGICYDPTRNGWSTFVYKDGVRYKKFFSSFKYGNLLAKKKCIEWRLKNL

[4] = target: T4, PfSIP2 D1 (Plasmodium falciparum, UniProt C6KSN9); test: competitive EMSA, inhibition of DNA binding; conditions: 300 uM compound; cognate biotinylated dsDNA probe; 10 mM Tris pH 7.5, 50 mM KCl, 6 mM MgCl2
T4 construct: gene PF3D7_0604100
T4 sequence (C6KSN9 1729-1788 limits assumed): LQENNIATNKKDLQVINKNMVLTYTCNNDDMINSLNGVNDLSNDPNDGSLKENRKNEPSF

[5] = target: T5, AP2-EXP AP2 domain (Plasmodium falciparum, UniProt Q8IKH2); test: competitive EMSA, inhibition of DNA binding; conditions: 300 uM compound, biotinylated cognate dsDNA probe, 10 mM Tris pH 7.5, 50 mM KCl, 6 mM MgCl2
T5 construct: gene PF3D7_1466400
T5 sequence (Q8IKH2 63-123): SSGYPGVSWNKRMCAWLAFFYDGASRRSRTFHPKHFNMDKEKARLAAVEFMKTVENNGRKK

[6] = target: AP2-EXP AP2 domain (Plasmodium falciparum, UniProt Q8IKH2 64-118); test: EMSA; 300 uM Compound D; EMSA: 10 mM Tris pH 7.5, 50 mM KCl, 1 mM DTT, 6 mM MgCl2, 60 ng/uL poly dIdC, 65 ng BSA; 125 ng AP2-EXP or PbAP2-Sp, 40-150 fmol probe; 15 min protein + compound, then 5 min with DNA; temperature not stated; conditions: protein: recombinant; (expressed as in cited work); label: 5' biotin on forward strand; blunt
[7] = target: AtERF1 AP2/ERF domain (Arabidopsis thaliana, UniProt O80337 147-205); test: EMSA; 300 uM Compound A; EMSA: 10 mM Tris pH 7.5, 50 mM KCl, 1 mM DTT, 6 mM MgCl2, 60 ng/uL poly dIdC, 65 ng BSA; 125 ng AP2-EXP or PbAP2-Sp, 40-150 fmol probe; 15 min protein + compound, then 5 min with DNA; temperature not stated; conditions: protein: recombinant; (pGex4t-1); label: 5' biotin on forward strand; blunt
Chain of AtERF1 AP2/ERF domain (O80337 147-205): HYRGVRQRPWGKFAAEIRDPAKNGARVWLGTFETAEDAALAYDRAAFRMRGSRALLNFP

## CCc1ccc(-c2nc3cc(NC(=O)c4ccc([N+](=O)[O-])o4)ccc3o2)cc1 [B, Compound B]
[1]
  competitive EMSA, inhibition of DNA binding: Compounds B and C block PbAP2-Sp DNA binding in vitro
[2]
  competitive EMSA, inhibition of DNA binding: Compounds A, B, C, and I can prevent DNA binding by AP2-I D3
[3]
  competitive EMSA, inhibition of DNA binding: Compounds B and I prevent DNA binding by AP2-HS D1 (S5B Fig)
[4]
  competitive EMSA, inhibition of DNA binding: Compounds B, C and I prevent DNA binding by PfSIP2 D1 (S5C Fig)

## Cc1ccc(-c2nc3cc(NC(=O)c4ccc([N+](=O)[O-])o4)ccc3o2)cc1Cl [B-1, Compound B-1]
[2]
  competitive EMSA, inhibition of DNA binding: prevent DNA binding by AP2-EXP (Fig 2A) and AP2-I D3 (S7A Fig)
[5]
  competitive EMSA, inhibition of DNA binding: Compounds B-1 and B-4 prevent DNA binding by AP2-EXP (Fig 2A)

## Cc1cccc(-c2nc3cc(NC(=O)c4ccc([N+](=O)[O-])o4)ccc3o2)c1 [B-4, Compound B-4]
[2]
  competitive EMSA, inhibition of DNA binding: prevent DNA binding by AP2-EXP (Fig 2A) and AP2-I D3 (S7A Fig)
[5]; also titrated at 25, 50 and 150 uM
  competitive EMSA, inhibition of DNA binding: Compounds B-1 and B-4 prevent DNA binding by AP2-EXP (Fig 2A)

B1: AP2-EXP gel shift probe (dsDNA)
DNA 1: ACTACACACCTAACTATGCATGCATCAATATAGTGGATTA
DNA 2: TAATCCACTATATTGATGCATGCATAGTTAGGTGTGTAGT
[6]
  binding result: binds

B2: AtERF1 gel shift probe (dsDNA)
DNA 1: TTTAACTTTAATTATGAATATGAGGCGGCGGGTTCGTGATCAAC
DNA 2: GTTGATCACGAACCCGCCGCCTCATATTCATAATTAAAGTTAAA
[7]
  binding result: binds
